Data from patent publication US20190047966A1, “NOVEL COMPOUND AND PHARMACOLOGICALLY ACCEPTABLE SALT THEREOF” (MEIJI SEIKA PHARMA CO., LTD., priority 2016, published 2019).

Assays:
[1] = target: T1, human histamine H4 receptor (Homo sapiens, UniProt Q9H3N8); assay: Evaluation of Human H4 Receptor Affinity ([3H]histamine binding); conditions: inhibition constant Ki, CHO-K1 membrane preparation, read-out: Evaluation of H4 Receptor Affinity
T1 construct: purchased PerkinElmer Inc; host or cells: CHO-K1
T1 sequence (Q9H3N8 whole entry): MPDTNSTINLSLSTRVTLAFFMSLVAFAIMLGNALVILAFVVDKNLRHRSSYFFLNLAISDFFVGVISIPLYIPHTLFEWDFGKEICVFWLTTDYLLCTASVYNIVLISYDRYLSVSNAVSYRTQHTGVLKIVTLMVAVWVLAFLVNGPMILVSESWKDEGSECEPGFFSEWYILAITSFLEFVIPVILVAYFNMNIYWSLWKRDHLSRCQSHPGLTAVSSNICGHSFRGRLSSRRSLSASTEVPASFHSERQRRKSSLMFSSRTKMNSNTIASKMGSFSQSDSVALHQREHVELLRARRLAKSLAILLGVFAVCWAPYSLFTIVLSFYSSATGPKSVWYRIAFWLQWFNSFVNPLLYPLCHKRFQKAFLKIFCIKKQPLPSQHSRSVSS
Description: Test Example 2: Evaluation of Human H4 Receptor Affinity
Membrane preparation from recombinant CHO-K1 cell expressing the human histamine H4 receptor (PerkinElmer Inc.), radiolabeled ligand 8.2 nM [^3H]histamine (PerkinElmer Inc.), and compounds dissolved in DMSO were reacted at 25° C. for 90 minutes in a buffering solution containing 50 mM tris-hydrochloric acid, pH 7.4, and 1.25 mM EDTA on a 96 well plate, followed by filtration using a GF/B filter (PerkinElmer Inc.) pretreated with 0.3% polyethylenimine. The residue was washed four times with a buffering solution of 50 mM tris-hydrochloric acid, pH 7.4. Thereafter, a scintillation cocktail (MicroScint 20: PerkinElmer Inc.) was added to the GF/B filter, and the radioactivity of each well was measured using a liquid scintillation counter for 96-well (TopCount: PerkinElmer Inc.). The non-specific binding was evaluated in the presence of 1.0 μM histamine. The inhibition constant Ki was calculated from the 50% inhibitory concentration (IC50 value) obtained in each test and the Kd value (5.7 nM) unique to this assay system, according to the Cheng-Prusoff equation.

[2] = target: human histamine H1 receptor (Homo sapiens, UniProt P35367); assay: Evaluation of Human H1 Receptor Affinity ([3H]pyrilamine binding); set-up: purchased PerkinElmer Inc; host or cells: CHO-K1; conditions: inhibition constant Ki, CHO-K1 membrane preparation
Chain of human histamine H1 receptor (P35367 whole entry): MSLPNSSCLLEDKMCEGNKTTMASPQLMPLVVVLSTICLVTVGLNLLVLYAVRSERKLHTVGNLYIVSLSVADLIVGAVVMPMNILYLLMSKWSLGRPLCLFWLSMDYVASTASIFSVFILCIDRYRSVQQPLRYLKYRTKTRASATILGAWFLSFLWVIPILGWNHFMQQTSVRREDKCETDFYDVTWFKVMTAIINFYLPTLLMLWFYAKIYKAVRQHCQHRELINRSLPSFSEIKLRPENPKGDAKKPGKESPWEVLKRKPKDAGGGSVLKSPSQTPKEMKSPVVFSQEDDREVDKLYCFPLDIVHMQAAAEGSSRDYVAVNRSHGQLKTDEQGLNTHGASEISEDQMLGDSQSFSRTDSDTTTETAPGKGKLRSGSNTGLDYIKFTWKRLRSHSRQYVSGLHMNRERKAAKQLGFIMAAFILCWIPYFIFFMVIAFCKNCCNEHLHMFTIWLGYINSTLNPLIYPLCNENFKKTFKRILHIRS
Description: Test Example 1: Evaluation of Human H1 Receptor Affinity
Membrane preparation from recombinant CHO-K1 cell expressing the human histamine H1 receptor (PerkinElmer Inc.), radiolabeled ligand 1.2 nM [^3H]pyrilamine (PerkinElmer Inc.), and test compounds dissolved in DMSO were reacted at 25° C. for 3 hours in a buffering solution containing 50 mM tris-hydrochloric acid, pH 7.4, and 5 mM magnesium chloride on a 96 well plate, followed by filtration using a GF/B filter (PerkinElmer Inc.) pretreated with 0.3% polyethylenimine. The residue was washed four times with a buffering solution of 50 mM tris-hydrochloric acid, pH 7.4. Thereafter, a scintillation cocktail (MicroScint 20: PerkinElmer Inc.) was added to the GF/B filter, and the radioactivity of each well was measured using a liquid scintillation counter for 96-well (TopCount: PerkinElmer Inc.). The non-specific binding was evaluated in the presence of 1.0 μM pyrilamine. The inhibition constant Ki was calculated from the 50% inhibitory concentration (IC50 value) obtained in each test and the Kd value (1.1 nM) unique to this assay system, according to the Cheng-Prusoff equation.

Question: What does the source list for `Nc1nc2c(c(N3CCN(CCO[C@H]4C[C@H](C(=O)O)C4)CC3)n1)CCc1cc(OCc3ccc(OC(F)(F)F)cc3)ccc1-2` [Example 30, trans-3-(2-(4-(2-amino-8-((4-(trifluoromethoxy)benzyl)oxy)-5,6-dihydrobenzo[h]quinazolin-4-yl)piperazin-1-yl)ethoxy)cyclobutane-1-carboxylic acid]?
Answer: Ki [1]: < 100 nM; Ki [2]: < 100 nM

Question: For `CC1(C(=O)O)CC(OCCN2CCN(c3nc(N)nc4c3CCc3cc(OCc5ccc(OC(F)(F)F)cc5)ccc3-4)CC2)C1` (stereo not drawn) [Example 31, cis-3-(2-(4-(2-amino-8-((4-(trifluoromethoxy)benzyl)oxy)-5,6-dihydrobenzo[h]quinazolin-4-yl)piperazin-1-yl)ethoxy)-1-methylcyclobutane-1-carboxylic acid], which Ki [1] is on record?
Answer: 100 to 500 nM

Question: What about the Ki [2] of the same molecule?
Answer: < 100 nM

Question: How did the Ki [1] turn out when `Nc1nc2c(c(N3CCN(CCO[C@H]4C[C@@H](C(N)=O)C4)CC3)n1)CCc1cc(OCc3ccc(OC(F)(F)F)cc3)ccc1-2` [Example 33, cis 3-(2-(4-(2-amino-8-((4-(trifluoromethoxy)benzyl)oxy)-5,6-dihydrobenzo[h]quinazolin-4-yl)piperazin-1-yl)ethoxy)cyclobutane-1-carboxamide] was run?
Answer: < 100 nM

Question: And the Ki [2]?
Answer: < 100 nM

Question: How did the Ki [1] turn out when `Nc1nc2c(c(N3CCN(CCO[C@H]4C[C@H](C(N)=O)C4)CC3)n1)CCc1cc(OCc3ccc(OC(F)(F)F)cc3)ccc1-2` [Example 34, trans-3-(2-(4-(2-amino-8-((4-(trifluoromethoxy)benzyl)oxy)-5,6-dihydrobenzo[h]quinazolin-4-yl)piperazin-1-yl)ethoxy)cyclobutane-1-carboxamide] was run?
Answer: < 100 nM

Question: And the Ki [2]?
Answer: < 100 nM

Question: Which Ki [1] does the source give for `CN1CCN(c2nc(N)nc3c2CCc2cc(NS(=O)(=O)CCCOc4ccccc4)ccc2-3)CC1` [Example 40, N-(2-amino-4-(4-methylpiperazin-1-yl)-5,6-dihydrobenzo[h]quinazolin-8-yl)-3-phenoxypropane-1-sulfonamide] here?
Answer: < 100 nM

Question: What about the Ki [2] of the same molecule?
Answer: < 100 nM

Question: `CN1CCN(c2nc(N)nc3c2CCc2cc(NS(=O)(=O)c4ccccc4)ccc2-3)CC1` [Example 41, N-(2-amino-4-(4-methylpiperazin-1-yl)-5,6-dihydrobenzo[h]quinazolin-8-yl)benzenesulfonamide] was tested. Which Ki [1] did it give?
Answer: 100 to 500 nM

Question: What about the Ki [2] of the same molecule?
Answer: 100 to 500 nM

Question: Which Ki [1] does the source give for `CN1CCN(c2nc(N)nc3c2CCc2cc(NS(=O)(=O)c4cccc(Cl)c4)ccc2-3)CC1` [Example 43, N-(2-amino-4-(4-methylpiperazin-1-yl)-5,6-dihydrobenzo[h]quinazolin-8-yl)-3-chlorobenzenesulfonamide] here?
Answer: 100 to 500 nM

Question: And the Ki [2]?
Answer: 100 to 500 nM

Question: With `CN1CCN(c2nc(N)nc3c2CCc2cc(NS(=O)(=O)c4ccc(Cl)s4)ccc2-3)CC1` [Example 44, N-(2-amino-4-(4-methylpiperazin-1-yl)-5,6-dihydrobenzo[h]quinazolin-8-yl)-5-chlorothiophene-2-sulfonamide] as the molecule, how does the Ki [1] read?
Answer: 100 to 500 nM

Question: And the Ki [2]?
Answer: 100 to 500 nM

Question: With `CN1CCN(c2nc(N)nc3c2CCc2cc(NS(=O)(=O)c4ccc(Cl)c(F)c4)ccc2-3)CC1` [Example 45, N-(2-amino-4-(4-methylpiperazin-1-yl)-5,6-dihydrobenzo[h]quinazolin-8-yl)-4-chloro-3-fluorobenzenesulfonamide] as the molecule, how does the Ki [1] read?
Answer: 100 to 500 nM

Question: What about the Ki [2] of the same molecule?
Answer: < 100 nM

Question: How did the Ki [1] turn out when `CN1CCN(c2nc(N)nc3c2CCc2cc(NS(=O)(=O)c4ccc(Cl)cc4F)ccc2-3)CC1` [Example 46, N-(2-amino-4-(4-methylpiperazin-1-yl)-5,6-dihydrobenzo[h]quinazolin-8-yl)-4-chloro-2-fluorobenzenesulfonamide] was run?
Answer: 100 to 500 nM

Question: And the Ki [2]?
Answer: < 100 nM

Question: What does the source list for `CN1CCN(c2nc(N)nc3c2CCc2cc(NS(=O)(=O)c4ccc(C#N)cc4)ccc2-3)CC1` [Example 47, N-(2-amino-4-(4-methylpiperazin-1-yl)-5,6-dihydrobenzo[h]quinazolin-8-yl)-4-cyanobenzenesulfonamide]?
Answer: Ki [1]: 100 to 500 nM; Ki [2]: 100 to 500 nM

Question: Which results are given for `CN1CCN(c2nc(N)nc3c2CCc2cc(NS(=O)(=O)Cc4ccccc4)ccc2-3)CC1` [Example 48, N-(2-amino-4-(4-methylpiperazin-1-yl)-5,6-dihydrobenzo[h]quinazolin-8-yl)-1-phenylmethanesulfonamide]?
Answer: Ki [1]: 100 to 500 nM; Ki [2]: 100 to 500 nM

Question: How did the Ki [1] turn out when `CN1CCN(c2nc(N)nc3c2CCc2cc(NS(=O)(=O)c4ccc(Cl)nc4)ccc2-3)CC1` [Example 49, N-(2-amino-4-(4-methylpiperazin-1-yl)-5,6-dihydrobenzo[h]quinazolin-8-yl)-6-chloropyridine-3-sulfonamide] was run?
Answer: 100 to 500 nM

Question: What about the Ki [2] of the same molecule?
Answer: 100 to 500 nM

Question: `CN1CCN(c2nc(N)nc3c2CCc2cc(NS(=O)(=O)c4ccc(F)cc4)ccc2-3)CC1` [Example 50, N-(2-amino-4-(4-methylpiperazin-1-yl)-5,6-dihydrobenzo[h]quinazolin-8-yl)-4-fluorobenzenesulfonamide] was tested. Which Ki [1] did it give?
Answer: < 100 nM

Question: And the Ki [2]?
Answer: < 100 nM

Question: For `CN1CCN(c2nc(N)nc3c2CCc2cc(NS(=O)(=O)CCc4ccccc4)ccc2-3)CC1` [Example 51, N-(2-amino-4-(4-methylpiperazin-1-yl)-5,6-dihydrobenzo[h]quinazolin-8-yl)-6-phenylethane-1-sulfonamide], which Ki [1] is on record?
Answer: < 100 nM

Question: What about the Ki [2] of the same molecule?
Answer: < 100 nM

Question: `CN1CCN(c2nc(N)nc3c2CCc2cc(NS(=O)(=O)CCCc4ccccc4)ccc2-3)CC1` [Example 52, N-(2-amino-4-(4-methylpiperazin-1-yl)-5,6-dihydrobenzo[h]quinazolin-8-yl)-3-phenylpropane-1-sulfonamide] was tested. Which Ki [1] did it give?
Answer: < 100 nM

Question: What about the Ki [2] of the same molecule?
Answer: < 100 nM

Question: Which results are given for `COc1ccc(S(=O)(=O)Nc2ccc3c(c2)CCc2c-3nc(N)nc2N2CCN(C)CC2)cc1` [Example 53, N-(2-amino-4-(4-methylpiperazin-1-yl)-5,6-dihydrobenzo[h]quinazolin-8-yl)-4-methoxybenzenesulfonamide]?
Answer: Ki [1]: 100 to 500 nM; Ki [2]: < 100 nM

Question: With `COC(=O)c1ccc(S(=O)(=O)Nc2ccc3c(c2)CCc2c-3nc(N)nc2N2CCN(C)CC2)cc1` [Example 55, methyl 4-(N-(2-amino-4-(4-methylpiperazin-1-yl)-5,6-dihydrobenzo[h]quinazolin-8-yl)sulfamoyl)benzoate] as the molecule, how does the Ki [1] read?
Answer: 100 to 500 nM

Question: And the Ki [2]?
Answer: 100 to 500 nM

Question: What does the source list for `CN1CCN(c2nc(N)nc3c2CCc2cc(NS(=O)(=O)C4CCCCC4)ccc2-3)CC1` [Example 56, N-(2-amino-4-(4-methylpiperazin-1-yl)-5,6-dihydrobenzo[h]quinazolin-8-yl)cyclohexanesulfonamide]?
Answer: Ki [1]: 100 to 500 nM; Ki [2]: 100 to 500 nM

Question: Which Ki [1] does the source give for `CN[C@H]1CCN(c2nc(N)nc3c2CCc2cc(OCc4ccccc4)ccc2-3)C1` [Example 101, (S)-8-(benzyloxy)-4-(3-(methylamino)pyrrolidin-1-yl)-5,6-dihydrobenzo[h]quinazolin-2-amine] here?
Answer: < 100 nM

Question: What about the Ki [2] of the same molecule?
Answer: 100 to 500 nM

Question: How did the Ki [1] turn out when `CN(C)[C@@H]1CCN(c2nc(N)nc3c2CCc2cc(OCc4ccccc4)ccc2-3)C1` [Example 103, (R)-8-(benzyloxy)-4-(3-(dimethylamino)pyrrolidin-1-yl)-5,6-dihydrobenzo[h]quinazolin-2-amine] was run?
Answer: < 100 nM

Question: What about the Ki [2] of the same molecule?
Answer: 100 to 500 nM

Question: Which Ki [1] does the source give for `CN(C)C1CCN(c2nc(N)nc3c2CCc2cc(OCc4ccccc4)ccc2-3)CC1` [Example 104, 8-(benzyloxy)-4-(4-(dimethylamino)piperidin-1-yl)-5,6-dihydrobenzo[h]quinazolin-2-amine] here?
Answer: < 100 nM

Question: And the Ki [2]?
Answer: 100 to 500 nM

Question: Which results are given for `CCS(=O)(=O)NCCCCN1CCN(c2nc(N)nc3c2CCc2cc(OCc4ccccc4)ccc2-3)CC1` [Example 105, N-(4-(4-(2-amino-8-(benzyloxy)-5,6-dihydrobenzo[h]quinazolin-4-yl)piperazin-1-yl)butyl)ethanesulfonamide bis(trifluoroacetate)]?
Answer: Ki [1]: 100 to 500 nM; Ki [2]: < 100 nM

Question: Which results are given for `CN1CCN(c2nc(N)nc3c2CCc2cc(OCc4ccccc4)ccc2-3)CC1CO` (stereo not shown) [Example 106, (4-(2-amino-8-(benzyloxy)-5,6-dihydrobenzo[h]quinazolin-4-yl)-1-methylpiperazin-2-yl)methanol]?
Answer: Ki [1]: 100 to 500 nM; Ki [2]: 100 to 500 nM

Question: With `CCS(=O)(=O)CCCN1CCN(c2nc(N)nc3c2CCc2cc(OCc4ccccc4)ccc2-3)CC1` [Example 107, 8-(benzyloxy)-4-(4-(3-(ethylsulfonyl)propyl)piperazin-1-yl)-5,6-dihydrobenzo[h]quinazolin-2-amine] as the molecule, how does the Ki [1] read?
Answer: 100 to 500 nM

Question: And the Ki [2]?
Answer: < 100 nM

Question: How did the Ki [1] turn out when `CNC(=O)COCCOCCN1CCN(c2nc(N)nc3c2CCc2cc(OCc4ccccc4)ccc2-3)CC1` [Example 108, 2-(2-(2-(4-(2-amino-8-(benzyloxy)-5,6-dihydrobenzo[h]quinazolin-4-yl)piperazin-1-yl)ethoxy)ethoxy)-N-methylacetamide] was run?
Answer: < 100 nM

Question: And the Ki [2]?
Answer: < 100 nM
